In PubChem BioAssay AID248 (DTP/NCI, 2004) one finds T/C data, which are given here for 18 compounds.

For the test, the system named is L1210 leukemia ip in BDF1 mice, survival T/C. The test is described as follows: NCI In Vivo Anticancer Drug Screen. Data for tumor model L1210 Leukemia (intraperitoneal) in B6D2F1 (BDF1) mice. As to conditions: endpoint: mean survival time, higher = longer survival. Put shortly: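 Mice bearing the transplanted tumor received compound or vehicle. Survival of the treated group was divided by that of the vehicle-treated control group to give the ratio.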

The mark [1] stands for this setting: dose: 100.0 mg/kg/injection, schedule: Q01DX009 (ip), vehicle: saline.
The mark [2] stands for this setting: dose: 200.0 mg/kg/injection, schedule: Q01DX009 (ip), vehicle: saline.
[3] abbreviates: dose: 100.0 mg/kg/injection, schedule: Q01DX001 (ip), vehicle: saline.
Where [4] appears, read: dose: 200.0 mg/kg/injection, schedule: Q01DX001 (ip), vehicle: saline.
[5] abbreviates: dose: 400.0 mg/kg/injection, schedule: Q01DX001 (ip), vehicle: saline.
The mark [6] stands for this setting: dose: 100.0 mg/kg/injection, schedule: Q04DX003 (ip), vehicle: Klucel (hydroxypropylcellulose) (HPC).
Setting [7] is: dose: 200.0 mg/kg/injection, schedule: Q04DX003 (ip), vehicle: Klucel (hydroxypropylcellulose) (HPC).
Setting [8] is: dose: 400.0 mg/kg/injection, schedule: Q04DX003 (ip), vehicle: Klucel (hydroxypropylcellulose) (HPC).
The mark [9] stands for this setting: dose: 100.0 mg/kg/injection, schedule: Q01DX009 (ip), vehicle: saline with Tween-80.
Setting [10] is: dose: 100.0 mg/kg/injection, schedule: Q04DX003 (ip), vehicle: saline with Tween-80.
Setting [11] is: dose: 200.0 mg/kg/injection, schedule: Q01DX009 (ip), vehicle: saline with Tween-80.
The mark [12] stands for this setting: dose: 200.0 mg/kg/injection, schedule: Q04DX003 (ip), vehicle: saline with Tween-80.
Setting [13] is: dose: 400.0 mg/kg/injection, schedule: Q04DX003 (ip), vehicle: saline with Tween-80.
Where [14] appears, read: dose: 100.0 mg/kg/injection, schedule: Q04DX002 (ip), vehicle: Klucel (hydroxypropylcellulose) (HPC).
The mark [15] stands for this setting: dose: 200.0 mg/kg/injection, schedule: Q04DX002 (ip), vehicle: Klucel (hydroxypropylcellulose) (HPC).
The mark [16] stands for this setting: dose: 400.0 mg/kg/injection, schedule: Q04DX002 (ip), vehicle: Klucel (hydroxypropylcellulose) (HPC).
Where [17] appears, read: dose: 100.0 mg/kg/injection, schedule: Q01DX009 (ip), vehicle: Klucel (hydroxypropylcellulose) (HPC).

Values joined by “and” are separate entries in the source; they are usually repeats but may differ in a detail not shown here. Equal entries are not always repeated. Inconclusive results and toxic doses are left out. Peptide text beside a SMILES is read from it. * marks the point of attachment. Bn = c1ccc(C*)cc1; For = O=C*

Consider `COc1ccc(OC=O)cc1OC`, for which the T/C is 98 % of control (dose: 50.0 mg/kg/injection, schedule: Q01DX009 (ip), vehicle: saline); 102 % of control under setting [1]; 97 % of control (dose: 100.0 mg/kg/injection, schedule: Q04DX003 (ip), vehicle: acetone); 101 % of control under setting [2]; 107 % of control (dose: 200.0 mg/kg/injection, schedule: Q04DX003 (ip), vehicle: acetone).
In the case of `CC(C)(Br)C1CC(=O)C(C)(Br)C(Br)C1` (stereo unspecified), the T/C under setting [3] is 98 % of control, the T/C under setting [4] is 101 % of control and the T/C under setting [5] is 101 % of control.
For `O=c1[nH]c(/C=C/c2ccc(Cl)cc2)nc(O)c1-c1ccc(Cl)cc1`, the T/C runs as follows: under setting [3], 104 % of control; under setting [6], 102 % of control; under setting [4], 98 % of control; under setting [7], 96 % of control; under setting [5], 93 % of control; under setting [8], 98 % of control.
As for `CC(C)CC(NC(=O)C(Cc1ccc(OCc2ccccc2)cc1)NC=O)C(=O)O` (stereo unspecified) (For-Tyr(Bn)-Leu-OH; configuration not given here), the T/C is, setting by setting: under setting [9], 98 % of control; under setting [10], 97 % of control; under setting [11], 98 % of control; under setting [12], 97 % of control; under setting [13], 92 % of control.
With `C/C(=N\NS(C)(=O)=O)C(C)(C)C`, the T/C is 103 % of control (dose: 75.0 mg/kg/injection, schedule: Q01DX001 (ip), vehicle: other); 103 % of control (dose: 150.0 mg/kg/injection, schedule: Q01DX001 (ip), vehicle: other); 97 % of control (dose: 300.0 mg/kg/injection, schedule: Q01DX001 (ip), vehicle: other).
`O=C(NCCO)c1ccc(Br)cc1`: the T/C is 97 % of control (dose: 50.0 mg/kg/injection, schedule: Q01DX009 (ip), vehicle: saline with Tween-80); 97 % of control under setting [9]; 90 % of control under setting [11].
For the compound `CCOC(=O)c1ccc(N2C(=O)CC(Sc3ccccc3N)C2=O)cc1` (stereo unspecified), the T/C runs as follows: (dose: 100.0 mg/kg/injection, schedule: Q01DX005 (ip), vehicle: Klucel (hydroxypropylcellulose) (HPC)) 97 % of control; under setting [14], 103 % of control; (dose: 200.0 mg/kg/injection, schedule: Q01DX005 (ip), vehicle: Klucel (hydroxypropylcellulose) (HPC)) 102 % of control; under setting [15], 103 % of control; (dose: 400.0 mg/kg/injection, schedule: Q01DX005 (ip), vehicle: Klucel (hydroxypropylcellulose) (HPC)) 91 % of control; under setting [16], 113 % of control.
For `C=CCOC(=O)N[C@H](CC(C)C)C(N)=O`, the T/C runs as follows: (dose: 100.0 mg/kg/injection, schedule: Q01DX001 (ip), vehicle: other) 94 % of control; (dose: 200.0 mg/kg/injection, schedule: Q01DX001 (ip), vehicle: other) 110 % of control; (dose: 400.0 mg/kg/injection, schedule: Q01DX001 (ip), vehicle: other) 100 % of control.
As for `Cc1cc(SC#N)ccc1O`, the T/C is 94 % of control (dose: 3.0 mg/kg/injection, schedule: Q01DX009 (ip), vehicle: saline with Tween-80); 102 % of control (dose: 6.0 mg/kg/injection, schedule: Q01DX009 (ip), vehicle: saline with Tween-80); 102 % of control (dose: 12.0 mg/kg/injection, schedule: Q01DX009 (ip), vehicle: saline with Tween-80); 102 % of control (dose: 25.0 mg/kg/injection, schedule: Q01DX009 (ip), vehicle: saline with Tween-80); 93 % of control (dose: 25.0 mg/kg/injection, schedule: Q04DX002 (ip), vehicle: other); 93 % of control (dose: 50.0 mg/kg/injection, schedule: Q04DX002 (ip), vehicle: other). For the setting “dose: 100.0 mg/kg/injection, schedule: Q04DX002 (ip), vehicle: other”, the T/C is 97 % of control.
Consider `CCCCCCCCCCCC(=O)NC(=S)Nc1ccc(C)c(Cl)c1`, for which the T/C under setting [6] was 89 % of control, the T/C under setting [7] is 95 % of control and the T/C under setting [8] was 90 % of control.
The like results for `CCNC(=O)C(=O)c1ccccc1NC(C)=O` were, in that order, 99 % of control, 100 % of control and 96 % of control.
Turning to `C=CS(=O)(=O)c1ccccc1`, the T/C is, setting by setting: (dose: 18.0 mg/kg/injection, schedule: Q04DX003 (ip), vehicle: saline with Tween-80) 102 % of control; (dose: 25.0 mg/kg/injection, schedule: Q01DX009 (ip), vehicle: Klucel (hydroxypropylcellulose) (HPC)) 91 % of control; (dose: 36.0 mg/kg/injection, schedule: Q04DX003 (ip), vehicle: saline with Tween-80) 104 % of control; (dose: 50.0 mg/kg/injection, schedule: Q01DX009 (ip), vehicle: Klucel (hydroxypropylcellulose) (HPC)) 91 % of control; (dose: 72.0 mg/kg/injection, schedule: Q04DX003 (ip), vehicle: saline with Tween-80) 98 % of control; under setting [17], 94 % of control. Moreover, the T/C is, setting by setting: under setting [10], 97 % of control; under setting [12], 92 % of control; under setting [13], 95 % of control.
With `CCN(CC)CC(=O)NCC(C)(CCN1CCOCC1)c1cccc2ccccc12` (stereo unspecified), the T/C under setting [1] is 105 % of control; the T/C under setting [2] was 105 % of control; the T/C (dose: 400.0 mg/kg/injection, schedule: Q01DX009 (ip), vehicle: saline) is 110 % of control.
For `CS(=O)(=O)Oc1ccc2c(c1)CCC2`, the T/C (dose: 100.0 mg/kg/injection, schedule: Q01DX001 (ip), vehicle: carboxymethylcellulose (CMC)) was 104 % of control; the T/C (dose: 200.0 mg/kg/injection, schedule: Q01DX001 (ip), vehicle: carboxymethylcellulose (CMC)) is 101 % of control; the T/C (dose: 400.0 mg/kg/injection, schedule: Q01DX001 (ip), vehicle: carboxymethylcellulose (CMC)) is 95 % of control.
For `CC(=O)N1c2ccccc2C(=O)OC1c1ccc2c(c1)CCC2` (stereo unspecified), the T/C is, setting by setting: under setting [6], 94 % of control; under setting [7], 89 % of control; under setting [8], 102 % of control.
Consider `Cc1cc(NC(=O)Nc2cc(F)ccc2F)no1`, for which the T/C (dose: 100.0 mg/kg/injection, schedule: Q01DX001 (ip), vehicle: Klucel (hydroxypropylcellulose) (HPC)) is 117 % of control; the T/C under setting [17] is 97 % of control; the T/C under setting [14] was 94 % of control and 90 % of control; the T/C under setting [6] was 99 % of control; the T/C (dose: 200.0 mg/kg/injection, schedule: Q01DX001 (ip), vehicle: Klucel (hydroxypropylcellulose) (HPC)) was 106 % of control; the T/C (dose: 200.0 mg/kg/injection, schedule: Q01DX009 (ip), vehicle: Klucel (hydroxypropylcellulose) (HPC)) is 92 % of control and 100 % of control. Besides, the T/C reads like this: under setting [15], 94 % of control and 97 % of control; under setting [7], 103 % of control; (dose: 400.0 mg/kg/injection, schedule: Q01DX001 (ip), vehicle: Klucel (hydroxypropylcellulose) (HPC)) 101 % of control; (dose: 400.0 mg/kg/injection, schedule: Q01DX009 (ip), vehicle: Klucel (hydroxypropylcellulose) (HPC)) 97 % of control and 90 % of control; under setting [16], 94 % of control and 101 % of control; under setting [8], 103 % of control.
`Cc1cc(=O)[nH]c(Nc2nc3cc(Cl)c(Cl)cc3[nH]2)n1`: the T/C runs as follows: under setting [9], 92 % of control; under setting [11], 90 % of control; (dose: 400.0 mg/kg/injection, schedule: Q01DX009 (ip), vehicle: saline with Tween-80) 97 % of control.
Turning to `CC(=O)c1ccc(NC(=O)N(CCCl)N=O)cc1`, the T/C reads like this: (dose: 2.0 mg/kg/injection, schedule: Q01DX001 (ip), vehicle: carboxymethylcellulose (CMC)) 122 % of control; (dose: 18.0 mg/kg/injection, schedule: Q01DX001 (ip), vehicle: carboxymethylcellulose (CMC)) 190 % of control; (dose: 25.0 mg/kg/injection, schedule: Q01DX001 (ip), vehicle: carboxymethylcellulose (CMC)) 152 % of control; (dose: 75.0 mg/kg/injection, schedule: Q01DX001 (ip), vehicle: carboxymethylcellulose (CMC)) 191 % of control; (dose: 150.0 mg/kg/injection, schedule: Q01DX001 (ip), vehicle: carboxymethylcellulose (CMC)) 160 % of control; (dose: 300.0 mg/kg/injection, schedule: Q01DX001 (ip), vehicle: carboxymethylcellulose (CMC)) 97 % of control.
